SMILES strings stand for the structures. Where “and” joins values, the source holds several entries; their conditions need not be identical. Identical values can stand only once. Like-named read-outs stand apart in the source and are kept apart here.

The test system of data set [1] is pFLuc-opal (UGA stop mutation). The data set can be described thus: FLuc cell-based readthrough assay in HeLa FLuc-opal transfected cells. Also on record: key to Pharm Set: Active: as active, compounds with FLUC values >4.52 (ATALUREN FLUC value); Inactive: as inactives, compounds with FLUC values ≤4.00; Moderate: as moderate actives, compounds with 4.39≤FLUC values ≤4,51. The note with it: for Pharm Set: class of activity related to the FLUC values. From the text: The results disclosed in (Pibiri I., Lentini L., Tutone M., Melfi R., Pace A., Di Leonardo A. Exploring the readthrough of nonsense mutations by non-acidic Ataluren analogues selected by ligand-based virtual screening. Eur. J. Med. Chem. 122 (2016) 429-435) have been refined with 3D-QSAR (quantitative structure-activity relationships) pharmacophore modelling. The endpoint to build QSAR models was the luciferase activity known data. These values were converted to pFLUC (−log FLUC) values. In order to find the common pharmacophore hypothesis, we divided the 24 compounds in three different classes of activity related to the FLUC values (Pharm set). We considered as active, compounds with FLUC values >4.52 (ATALUREN FLUC value), as inactives, compounds with FLUC values ≤4.00, and as moderate actives, compounds with 4.39≤FLUC values ≤4,51. Dataset was randomly split into a training set (19 compounds) for models generation, and test set (5 compounds) for the validation of developed models, as reported in Table 1.
To ascertain the effectiveness of the newly synthesized ataluren analogues in promoting the readthrough of premature termination codons was used the FLuc cell-based assay. To this aim HeLa cells were transfected transiently with the plasmids pFLuc-wild type (control) and pFLuc-opal (UGA stop mutation) (NIH Chemical Genomics Center, National Institutes of Health, Bethesda, USA). FLuc gene expression was then measured by luminescence.

Data set [2] relates to HeLa cells. The data set is described as follows: Cytotoxic effects and impact on cell proliferation in HeLa cells. Type of data set: cell-based. The settings on record: 12 μM. As to the method:
HeLa cells were used to determine the possible cytotoxic effects of our compounds and the impact on cell proliferation. In FIG. 7 are reported the percentages of dead cells and proliferating cells after treatment with 12 μM compounds and 12 μM ATALUREN.

Data set [3] relates to pFLuc-opal (UGA stop mutation). The note with it: luciferase activity known data, converted to pFLUC (−log FLUC); literature [1], [2]; cited from earlier work.

Take `O=C(O)c1cccc(-c2noc(-c3ccccc3F)n2)c1` [ATALUREN, 3-(5-(2-Fluorophenyl)-1,2,4-oxadiazol-3-yl)benzoic acid]: the “Pharm Set” value in data set [1] is given as “Active”. Besides, the dead cells in data set [2] (24 h) came out at 4%; in data set [2] (72 h), 7%. Moreover, the “RLU values Exp.” value in data set [3] was 4.52 and 4.528.

As to `COC(=O)c1cccc(-c2noc(-c3ccccc3F)n2)c1` [Compound 1-NV1103], the “Pharm Set” value in data set [1] was “Active”. For the same compound, the “RLU values Exp.” value in data set [3] is recorded as 4.532.

For `COC(=O)c1cccc(-c2noc(-c3cccc(F)c3)n2)c1` [Compound 2-NV1127], in data set [1], the “Pharm Set” value is given as “Moderate (as moderate actives, compounds with 4.39≤FLUC values ≤4,51)”. Further, the “RLU values Exp.” value in data set [3] is recorded as 4.477.

In the case of `O=C(O)c1cccc(-c2noc(-c3cccc(F)c3)n2)c1` [Compound 3-NV1133, 3-(5-(3-Fluorophenyl)-1,2,4-oxadiazol-3-yl)benzoic acid], in data set [1], the “Pharm Set” value is “Active”. Further, in data set [3], the “RLU values Exp.” value is given as 4.628.

For the compound `COC(=O)c1cccc(-c2noc(-c3cc(F)c(F)cc3F)n2)c1` [Compound 4-NV1128, Methyl 3-(5-(2,4,5-trifluorophenyl)-1,2,4-oxadiazol-3-yl) benzoate)], in data set [1], the “Pharm Set” value is on record as “Moderate (as moderate actives, compounds with 4.39≤FLUC values ≤4,51)”. In addition, the “RLU values Exp.” value in data set [3] is 4.397.

Consider `O=C(O)c1cccc(-c2noc(-c3cc(F)c(F)cc3F)n2)c1` [Compound 5-NV1173, 3-(5-(2,4,5-Trifluorophenyl)-1,2,4-oxadiazol-3-yl)benzoic acid], for which the “Pharm Set” value in data set [1] is on record as “Active”. Besides, the “RLU values Exp.” value in data set [3] is 4.788.

Turning to `COC(=O)c1cccc(-c2noc(-c3ccc(F)cc3)n2)c1` [Compound 6-NV1153], the “Pharm Set” value in data set [1] is “Inactive”. Moreover, the “RLU values Exp.” value in data set [3] is listed as 4.125.

On to `COC(=O)c1cccc(-c2noc(-c3cccc(F)c3F)n2)c1` [Compound 7-NV1149], for which the “Pharm Set” value in data set [1] is “Inactive”. The “RLU values Exp.” value in data set [3] is reported as 4.103.

For `COC(=O)c1cccc(-c2noc(-c3cccc(F)c3F)n2)c1` [Compound 8-NV1170, Methyl 3-(5-(2,3-difluorophenyl)-1,2,4-oxadiazol-3-yl)ben zoate)], the “Pharm Set” value in data set [1] is “Moderate (as moderate actives, compounds with 4.39≤FLUC values ≤4,51)”. For the same compound, the “RLU values Exp.” value in data set [3] is on record as 4.311.

As to `COC(=O)c1cccc(-c2noc(-c3ccc(F)c(F)c3)n2)c1` [Compound 9-NV1175, Methyl 3-(5-(3,4-difluorophenyl)-1,2,4-oxadiazol-3-yl)ben-zoate)], the “Pharm Set” value in data set [1] is given as “Moderate (as moderate actives, compounds with 4.39≤FLUC values ≤4,51)”. Besides, the “RLU values Exp.” value in data set [3] is recorded as 4.269.

Take `COC(=O)c1cccc(-c2noc(-c3ccc(F)cc3F)n2)c1` [Compound 10-NV1171, Methyl 3-(5-(2,4-difluorophenyl)-1,2,4-oxadiazol-3-yl)ben-zoate)]: the “Pharm Set” value in data set [1] is “Moderate (as moderate actives, compounds with 4.39≤FLUC values ≤4,51)”. Besides, in data set [3], the “RLU values Exp.” value was 4.439.

Turning to `COC(=O)c1cccc(-c2noc(-c3c(F)cccc3F)n2)c1` [Compound 11-NV1174, Methyl 3-(5-(2,6-difluorophenyl)-1,2,4-oxadiazol-3-yl)ben-zoate)], in data set [1], the “Pharm Set” value was “Moderate (as moderate actives, compounds with 4.39≤FLUC values ≤4,51)”. Besides, the “RLU values Exp.” value in data set [3] is on record as 4.414.

As to `Cc1cccc(-c2noc(-c3ccccc3F)n2)c1` [Compound 12-NV1798, 3-Toluyl, 5-(2-fluorophenyl)-1,2,4-oxadiazole], the “Pharm Set” value in data set [1] is “Inactive”. Besides, the “RLU values Exp.” value in data set [3] was 4.178.

As to `COC(=O)c1cccc(-c2noc(-c3c(F)c(F)c(F)c(F)c3F)n2)c1` [Compound 13-NV1951], in data set [1], the “Pharm Set” value is reported as “Inactive”. Further, the “RLU values Exp.” value in data set [3] is recorded as 4.008.

`O=C(O)c1cccc(-c2noc(-c3c(F)c(F)c(F)c(F)c3F)n2)c1` [Compound 14-NV1954, 3-(5-(Perfluorophenyl)-1,2,4-oxadiazol-3-yl)benzoic acid]: in data set [1], the “Pharm Set” value is recorded as “Inactive”. Besides, the “RLU values Exp.” value in data set [3] is listed as 4.171.

As to `N#Cc1cccc(-c2nc(-c3ccccn3)no2)c1` [Compound 15-NV1859, 3-(2′-pyridyl)-5-(3′-cyanophenyl)-1,2,4-oxadiazole], in data set [1], the “Pharm Set” value is recorded as “Moderate (as moderate actives, compounds with 4.39≤FLUC values ≤4,51)”. Besides, the “RLU values Exp.” value in data set [3] is 4.363.

For the compound `Cc1cccc(-c2nc(-c3ccncc3)no2)c1` [Compound 16-NV1861, 3-(4′-pyridyl)-5-(3′-toluyl)-1,2,4-oxadiazole], the “Pharm Set” value in data set [1] is listed as “Moderate (as moderate actives, compounds with 4.39≤FLUC values ≤4,51)”. In addition, in data set [3], the “RLU values Exp.” value was 4.250.

For `Cc1cccc(-c2nc(-c3cccnc3)no2)c1` [Compound 17-NV1879, 3-(3′-pyridyl)-5-(3′-toluyl)-1,2,4-oxadiazole], the “Pharm Set” value in data set [1] is on record as “Moderate (as moderate actives, compounds with 4.39≤FLUC values ≤4,51)”. Moreover, the “RLU values Exp.” value in data set [3] is recorded as 4.411.

Consider `Cc1cccc(-c2nc(-c3ccccc3)no2)c1` [Compound 18-NV1883, 3-(3′-phenyl)-5-(3′-toluyl)-1,2,4-oxadiazole], for which, in data set [1], the “Pharm Set” value was “Moderate (as moderate actives, compounds with 4.39≤FLUC values ≤4,51)”. Moreover, the “RLU values Exp.” value in data set [3] is reported as 4.428.

For `Cc1cccc(-c2noc(-c3ccccc3C)n2)c1` [Compound 19-NV1894, 3-(3-toluyl), 5-(2-toluyl)-1,2,4-oxadiazole], the “Pharm Set” value in data set [1] is “Moderate (as moderate actives, compounds with 4.39≤FLUC values ≤4,51)”. Besides, the “RLU values Exp.” value in data set [3] is listed as 4.250.

In the case of `Cc1cccc(-c2noc(-c3cccc(C)c3)n2)c1` [Compound 20-NV1905, 3-(3-toluyl), 5-(3-toluyl)-1,2,4-oxadiazole], the “Pharm Set” value in data set [1] is “Inactive”. In addition, the “RLU values Exp.” value in data set [1] (luciferase activity converted to pFLUC, [3] unpublished data) was found to be 4.181.

In the case of `Cc1cccc(-c2nc(-c3ccccn3)no2)c1` [Compound 21-NV1898, 3-(2-pyridyl)-5-(3′-toluyl)-1,2,4-oxadiazole], in data set [1], the “Pharm Set” value was “Active”. Further, the “RLU values Exp.” value in data set [3] is 4.551.

Regarding `COc1cccc(C(=O)c2nc(-c3ccncc3)no2)c1` [Compound 22-NV1919, 3-(4′-pyridyl)-5-(3′-anisoyl)-1,2,4-oxadiazole], in data set [1], the “Pharm Set” value is “Moderate (as moderate actives, compounds with 4.39≤FLUC values ≤4,51)”. Also, the “RLU values Exp.” value in data set [3] is reported as 4.253.

On to `COc1cccc(C(=O)c2nc(-c3ccccn3)no2)c1` [Compound 23-NV1940, 3-(2-pyridyl)-5-(3′-anisoyl)-1,2,4-oxadiazole], for which the “Pharm Set” value in data set [1] is on record as “Inactive”. The “RLU values Exp.” value in data set [3] is 4.000.

Values taken from patent US11203578B2, “Oxadiazole derivatives for the treatment of genetic diseases due to nonsense mutations” (UNIVERSITA' DEGLI STUDI DIPALERMO, priority 2017, dated 2021).
